Experimental data reported in EP3974434B1, “MACROLIDE DERIVATIVES, PREPARATION METHOD AND APPLICATION THEREOF” (Zhejiang Hisun Pharmaceutical Co., Ltd., priority 2019, dated 2020).
Where two headings read alike, the source gives them in different places.

How the values were obtained:
TRKA = target: T1, TRKA (Homo sapiens, UniProt P04629); test: HTRF KinEASE-TK kinase activity inhibition assay, TRKA; format: biochemical; conditions: ATP 100 µM
T1 construct: purchased Carna bioscience 08-186
Excerpt: (§1) The following method was used to determine the inhibition degrees of the compounds of the present invention on the activity of recombinant human NTRK family kinase in vitro. In this method, HTRF®KinEASE-TK tyrosine kinase kit (article number: 62TK0PEB) of Cisbio company was used, and the principle of the kit was based on time-resolved fluorescence resonance energy transfer (TF-FRET), and the inhibition of the compounds on the activity of the NTRK kinase was reflected by determining a phosphorylation degree of a biotinylated polypeptide substrate mediated by NTRK kinase. For detailed experimental operation, please refer to the kit instruction. Recombinant human wild-type NTRK proteins were purchased from Carna bioscience (the article numbers were TRKA #08-186, TRKB #08-187 and TRKC #08-197 respectively), and recombinant human mutant NTRK proteins were purchased from SignalChem (the article numbers were TRKA G595R #N16-12BG-10, TRKA G667C # N16-12CG-10, and TRKC G623R # N18-12CH-10 respectively).
(§2) The experimental methods were operated according to the steps in the kit instruction, and were briefly described as follows: a test compound was first dissolved in DMSO to prepare a storage solution, and then diluted in gradient with a buffer provided in the kit. A final concentration of the test compound in the reaction system ranged from 1,000 nM to 0.004 nM. An ATP Km value concentration of each NTRK protein was determined by using an ATP solution diluted in gradient (Sangon Biotech (Shanghai) Co., Ltd., A600311). According to the Km value obtained, the ATP concentrations in the reaction system were set as 100 µM for TRKA, 10 µM for TRKB, 50 µM for TRKC, 7 µM for TRKA(G595R), 1 µM for TRKA(G667C) and 100 µM for TRKC(G623R). The reaction was carried out in a 384-well microplate. Firstly, the compound and a certain amount of corresponding NTRK protein were added to the wells and incubated for 5 minutes to 10 minutes at room temperature. Then, the ATP solution and the biotinylated polypeptide substrate solution were added to the reaction solution and incubated with shaking at room temperature for 60 minutes. Then, an anti-phosphorylated tyrosine antibody coupled with a europium compound and streptavidin coupled with modified allophycocyanin XL665 were added to the reaction, and continuously incubated with shaking at room temperature for 1 hour. After incubation, fluorescence intensity values of each well at an excitation wavelength of 304 nm, and emission wavelengths of 620 nm and 665 nM were determined in a TF-FRET mode on a microplate reader. Compared with the fluorescence intensity ratio of a control group (0.1% DMSO), the percentage inhibition rates of the compound at each concentration were calculated, and the IC50 value of the compound was obtained by performing nonlinear regression analysis for logarithmic value of the compound concentration - inhibition rate by GraphPad Prism 5 software, which can be seen in Table 1. Table 1 IC50 data of the compounds of the present invention on TRK enzyme activity inhibition

TRKC = target: T2, TRKC (Homo sapiens, UniProt Q16288); test: HTRF KinEASE-TK kinase activity inhibition assay, TRKC; format: biochemical; conditions: ATP 50 µM
T2 construct: purchased Carna bioscience 08-197
Excerpt: as §1, §2

TRKB = target: T3, TRKB (Homo sapiens, UniProt Q16620); test: HTRF KinEASE-TK kinase activity inhibition assay, TRKB; format: biochemical; conditions: ATP 10 µM
T3 construct: purchased Carna bioscience 08-187
Excerpt: as §1, §2

TRKA(G667C) = target: T4, TRKA(G667C) (Homo sapiens, UniProt P04629, G667C); test: HTRF KinEASE-TK kinase activity inhibition assay, TRKA(G667C); format: biochemical; conditions: ATP 1 µM
T4 construct: purchased SignalChem N16-12CG-10
Excerpt: as §1, §2

TRKA(G595R) = target: T5, TRKA(G595R) (Homo sapiens, UniProt P04629, G595R); test: HTRF KinEASE-TK kinase activity inhibition assay, TRKA(G595R); format: biochemical; conditions: ATP 7 µM
T5 construct: purchased SignalChem N16-12BG-10
Excerpt: as §1, §2

[1] = Pharmacokinetic study on ICR mice (plasma, LC-MS/MS); format: in vivo; conditions: male, mouse; for bioavailability: 5 mg/kg oral intake vs 1 mg/kg injection, read-out: Bioavailability F(%); for AUC(0-inf): read-out: Area under curve AUC0-∞; for Cmax: read-out: Blood concentration Cmax; for half-life: read-out: Half-life T1/2(h) (converted); for clearance: read-out: Clearance rate
Experimental: ICR mice, male, 29.0 g to 33.8g, purchased from Beijing Charles River Laboratory Animal Technology Co., Ltd.
Intravenous injection group: an appropriate amount of drug was weighed, and added with mixed solvent (DMA: 30% Solutol HS-15: Saline = 10: 10: 80 (v/v/v)) to prepare the drug with a final concentration of 0.2 mg/mL.
Oral gavage administration group: an appropriate amount of drug was weighed, added with an appropriate amount of sodium carboxymethyl cellulose (CMC-Na, containing 0.5% Tween 80), vortex shaked, and ultrasonically prepared into […] suspension.
For ICR mice, each compound to be tested was divided into an intravenous injection group (9 mice in each group) and an intragastric group (9 mice in each group). The ICR mice were fasted overnight and then administered by orbital intravenous injection (administration dose of 1 mg/kg, and administration volume of 5 mL/kg) and administered by intragastric injection (administration dose of 5 mg/kg, and administration volume of 10 mL/kg), and ate 4 hours after administration.
About 0.2 mL of blood was collected via jugular vein before administration and 0.083 hour, 0.25 hour, 0.5 hour, 1 hour, 2 hours, 4 hours, 8 hours, 12 hours and 24 hours after administration, and heparin sodium was used for anticoagulation. The collected blood samples were placed on ice, and plasma was separated by centrifugation (centrifugation condition: 1500 g, 10 minutes). The collected plasma was stored at-40°C to -20°C before analysis.
LC-MS/MS was used to determine the contents of different compounds to be tested in mouse plasma after intravenous injection and intragastric administration.
The pharmacokinetic parameters of the compounds of the present invention and the positive control can be seen in Table 8. Table 8 Results of pharmacokinetic parameters

TRKC(G623R) = target: T6, TRKC(G623R) (Homo sapiens, UniProt Q16288, G623R); test: HTRF KinEASE-TK kinase activity inhibition assay, TRKC(G623R); format: biochemical; conditions: ATP 100 µM
T6 construct: purchased SignalChem N18-12CH-10
Excerpt: as §1
as §2, with “Then, an anti-phosphorylated tyrosine antibody coupled with a europium compound and streptavidin coupled with modified allophycocyanin XL665 were added to the reaction, and continuously incubated with shaking at room temperature for 1 hour.” left out, “Table 1 IC50 data of the compounds of the present invention on TRK enzyme activity inhibition” left out

[2] = intravenous, 1 mg/kg, injection

T1 sequence (P04629 33-796): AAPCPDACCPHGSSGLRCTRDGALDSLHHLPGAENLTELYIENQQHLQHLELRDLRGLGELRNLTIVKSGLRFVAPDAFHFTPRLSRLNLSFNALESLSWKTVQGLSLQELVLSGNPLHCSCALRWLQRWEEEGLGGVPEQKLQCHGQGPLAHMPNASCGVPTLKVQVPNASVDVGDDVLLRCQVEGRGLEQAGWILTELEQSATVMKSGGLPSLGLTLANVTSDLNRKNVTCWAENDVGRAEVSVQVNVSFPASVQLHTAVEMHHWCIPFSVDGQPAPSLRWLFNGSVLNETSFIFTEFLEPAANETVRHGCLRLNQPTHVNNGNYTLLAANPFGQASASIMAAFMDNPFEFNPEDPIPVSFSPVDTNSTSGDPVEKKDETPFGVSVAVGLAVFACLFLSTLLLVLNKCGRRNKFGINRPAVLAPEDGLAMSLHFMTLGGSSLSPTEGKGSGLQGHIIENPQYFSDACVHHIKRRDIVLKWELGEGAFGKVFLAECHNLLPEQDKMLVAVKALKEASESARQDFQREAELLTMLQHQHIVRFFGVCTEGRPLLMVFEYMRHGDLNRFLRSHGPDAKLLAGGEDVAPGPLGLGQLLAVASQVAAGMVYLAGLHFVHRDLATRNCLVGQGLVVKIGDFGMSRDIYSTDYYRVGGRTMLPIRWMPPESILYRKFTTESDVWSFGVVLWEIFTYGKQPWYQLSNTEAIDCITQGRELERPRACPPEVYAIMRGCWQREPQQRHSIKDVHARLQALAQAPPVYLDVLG
T3 sequence (Q16620 32-822): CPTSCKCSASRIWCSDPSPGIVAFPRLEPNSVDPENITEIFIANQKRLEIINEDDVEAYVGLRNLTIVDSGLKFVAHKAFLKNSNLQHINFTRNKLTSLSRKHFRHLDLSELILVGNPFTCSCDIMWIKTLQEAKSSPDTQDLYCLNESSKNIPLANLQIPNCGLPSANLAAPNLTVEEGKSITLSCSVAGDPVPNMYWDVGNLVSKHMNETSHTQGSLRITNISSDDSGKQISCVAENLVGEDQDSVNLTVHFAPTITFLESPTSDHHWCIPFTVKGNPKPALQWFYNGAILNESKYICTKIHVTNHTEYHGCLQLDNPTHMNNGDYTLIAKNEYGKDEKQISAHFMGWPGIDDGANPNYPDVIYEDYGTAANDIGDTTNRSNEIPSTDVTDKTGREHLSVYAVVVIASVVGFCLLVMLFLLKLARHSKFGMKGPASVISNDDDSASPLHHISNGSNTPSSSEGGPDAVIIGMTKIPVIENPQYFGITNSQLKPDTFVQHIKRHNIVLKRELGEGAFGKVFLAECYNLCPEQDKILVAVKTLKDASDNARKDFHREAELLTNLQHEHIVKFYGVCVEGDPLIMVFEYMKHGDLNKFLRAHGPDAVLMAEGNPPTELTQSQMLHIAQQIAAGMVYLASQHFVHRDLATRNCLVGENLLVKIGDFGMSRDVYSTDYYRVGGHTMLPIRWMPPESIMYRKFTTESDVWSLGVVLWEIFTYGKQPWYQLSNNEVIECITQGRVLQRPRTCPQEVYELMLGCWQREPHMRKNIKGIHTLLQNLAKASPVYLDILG
T2 sequence (Q16288 32-839): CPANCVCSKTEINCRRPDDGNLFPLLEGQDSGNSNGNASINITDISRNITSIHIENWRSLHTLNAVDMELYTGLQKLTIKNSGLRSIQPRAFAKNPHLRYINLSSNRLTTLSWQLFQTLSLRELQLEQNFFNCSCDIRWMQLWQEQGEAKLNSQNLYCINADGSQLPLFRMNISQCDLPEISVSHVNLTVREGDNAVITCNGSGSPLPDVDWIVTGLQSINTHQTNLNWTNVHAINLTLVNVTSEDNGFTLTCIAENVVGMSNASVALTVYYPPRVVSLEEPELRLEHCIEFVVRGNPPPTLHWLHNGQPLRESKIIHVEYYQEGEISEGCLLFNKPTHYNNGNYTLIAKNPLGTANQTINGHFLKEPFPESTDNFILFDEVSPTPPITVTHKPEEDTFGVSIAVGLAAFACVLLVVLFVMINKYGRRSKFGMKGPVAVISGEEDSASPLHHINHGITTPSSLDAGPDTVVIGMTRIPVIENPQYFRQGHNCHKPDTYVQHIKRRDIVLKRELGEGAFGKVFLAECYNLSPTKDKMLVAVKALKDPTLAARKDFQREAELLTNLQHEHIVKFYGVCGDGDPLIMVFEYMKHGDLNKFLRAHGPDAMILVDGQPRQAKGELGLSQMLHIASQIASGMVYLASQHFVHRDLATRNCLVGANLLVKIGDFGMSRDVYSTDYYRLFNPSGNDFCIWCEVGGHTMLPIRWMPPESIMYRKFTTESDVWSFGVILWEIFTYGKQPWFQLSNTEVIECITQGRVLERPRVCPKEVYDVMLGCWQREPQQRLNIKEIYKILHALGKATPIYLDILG
T4 sequence (P04629 33-796 G667C): as the sequence (P04629 33-796) above, with G635C counted along it
T5 sequence (P04629 33-796 G595R): as the sequence (P04629 33-796) above, with G563R counted along it
T6 sequence (Q16288 32-839 G623R): as the sequence (Q16288 32-839) above, with G592R counted along it

SMILES	IC50 (TRKA) [nM]	IC50 (TRKC) [nM]	IC50 (TRKB) [nM]	IC50 (TRKA(G667C)) [nM]	IC50 (TRKA(G595R)) [nM]	further results
COC[C@@]12CNC(=O)c3cnn4ccc(nc34)N[C@H](C)c3cc(F)cc(c3O1)C2 [Example 15, (3R,11R)-6-fluoro-11-(methoxymethyl)-3-methyl-10-oxa-2,13,17,18,21-pentaazapentacyclo[13.5.2.1 ^8,11.0^4,9.0^18,22]tricosa-1(21),4,6,8,15(22),16,19-hept aen-14-one]	2.8	0.37	–	–	–	–
C[C@H]1Nc2ccn3ncc(c3n2)C(=O)NC[C@]2(C)Cc3cc(F)c(F)c1c3O2 [Example 11, (3R,11S)-5,6-difluoro-3,11-dimethyl-10-oxa-2,13,1 7,18,21-pentaazapentacyclo[13.5.2.1^8,11.0^4,9.0^18,22]t ricosa-1(21),4,6,8,15(22),16,19-heptaen-14-one]	4.5	0.63	–	–	–	–
C[C@H]1Nc2ccn3ncc(c3n2)C(=O)NCC2(CF)Cc3cc(F)cc1c3O2 (stereo partly drawn) [Example 18, (3R)-6-fluoro-11-(fluoromethyl)-3-methyl-10-oxa-2,13,17,18,21-pentaazapentacyclo[13.5.2.1^8,11.0^4,9. 0^18,22]tricosa-1(21),4,6,8,15(22),16,19-heptaen-14-one]	0.63	1.37	0.17	6.11	3.9	–
C[C@H]1Nc2ccn3ncc(c3n2)C(=O)NCC[C@H]2Cc3cc(F)cc1c3O2 [Example 3, (3R,11R)-6-fluoro-3-methyl-10-oxa-2,14,18,19,22-pentaazapentacyclo[14.5.2.1^8,11.0^4,9.0^19,23]tetracosa-1(22),4,6,8,16(23),17,20-heptaen-15-one]	1.7	0.47	0.33	–	3.31	–
C[C@H]1Nc2ccn3ncc(c3n2)C(=O)NCC2(CO)Cc3cc(F)cc1c3O2 (stereo partly drawn) [Example 19, (3R)-6-fluoro-11-(hydroxymethyl)-3-methyl-10-ox a-2,13,17,18,21-pentaazapentacyclo[13.5.2.1^8,11.0^4, 9.0^18,22]tricosa-1(21),4,6,8,15(22),16,19-heptaen-14-one]	3.4	1.16	0.25	–	19.3	–
C[C@H]1Nc2ccn3ncc(c3n2)C(=O)NCC[C@@]2(C)Cc3cc(F)cc1c3O2 [Example 20, (3R,11R)-6-fluoro-3,11-dimethyl-10-oxa-2,14,18,1 9,22-pentaazapentacyclo[14.5.2.1^8,11.0^4,9.0^19,23]tetra cosa-1(22),4,6,8,16(23),17,20-heptaen-15-one]	5.9	–	–	4.2	–	–
C[C@H]1Nc2ccn3ncc(c3n2)C(=O)NCC2Cc3cc(F)cc1c3O2 (stereo partly drawn) [Example 1, (3R)-6-fluoro-3-methyl-10-oxa-2,13,17,18,21-pent aazapentacyclo[13.5.2.1^8,11.0^4,9.0^18,22]tricosa-1(21), 4,6,8, 15(22),16, 19-heptaen-14-one]	1.66	0.5	0.29	–	11.3	–
C[C@H]1Nc2ccn3ncc(c3n2)C(=O)NC[C@]2(C)COc3cc(F)cc1c3O2 [Example 23, (2R,14R)-19-fluoro-2,14-dimethyl-16,22-dioxa-3,5 ,7,8,12-pentaazapentacyclo[12.6.2.2^4,7.0^6,10.0^17,21]te tracosa-1(20),4,6(10),8,17(21),18,23-heptaen-11-one]	4.83	–	–	–	15.3	–
C[C@H]1Nc2ccn3ncc(c3n2)C(=O)NCC[C@]2(C)Cc3cc(F)cc1c3O2 [Example 21, (3R,11S)-6-fluoro-3,11-dimethyl-10-oxa-2,14,18,1 9,22-pentaazapentacyclo[14.5.2.1^8,11.0^4,9.0^19,23]tetra cosa-1(22),4,6,8,16(23),17,20-heptaen-15-one]	18.5	–	–	24.6	–	–
C[C@H]1Nc2ccn3ncc(c3n2)C(=O)NCCC2=Cc3cc(F)cc1c3O2 [Example 6, (3R)-6-fluoro-3-methyl-10-oxa-2,14,18,19,22-pent aazapentacyclo[14.5.2.1^8,11.0^4,9.0^19,23]tetracosa-1(2 2),4,6,8,11(24),16(23),17,20-octaen-15-one]	1.05	–	0.34	–	11.3	–
C[C@H]1CNC(=O)c2cnn3ccc(nc23)N[C@H](C)c2cc(F)ccc2O1 [repotrectinib, reference compound]	–	–	–	–	–	bioavailability [1]: 13%; AUC(0-inf) ([1]; 5 mg/kg, oral intake): 530 ng·h/mL; Cmax ([1]; 5 mg/kg, oral intake): 154 ng/mL; half-life ([1]; 5 mg/kg, oral intake): 2.93 h; AUC(0-inf) [1, 2]: 824 ng·h/mL; clearance [1, 2]: 20.2 mL/min/kg; half-life [1, 2]: 3.9 h
C[C@H]1Nc2ccn3ncc(c3n2)C(=O)NC[C@@H]2COc3cc(F)cc1c3O2 [Example 7, (2R,14R)-19-fluoro-2-methyl-16,22-dioxa-3,5,7,8, 12-pentaazapentacyclo[12.6.2.2^4,7.0^6,10.0^17,21]tetrac osa-1(20),4,6(10),8,17(21),18,23-heptaen-11-one]	2.05	–	0.32	21.1	2.65	IC50 (TRKC(G623R)): 25.3 nM
C[C@H]1Nc2ccc3ncc(n3n2)C(=O)NC[C@@]2(C)Cc3cc(F)cc1c3O2 [Example 26, (3R,11R)-6-fluoro-3,11-dimethyl-10-oxa-2,13,17,21,22-pentaazapentacyclo[13.5.2.1^8,11.0^4,9.0^18 ,22]tricosa-1(21),4,6,8,15,17,19-heptaen-14-one]	0.97	0.8	1.3	15.5	8.6	–
C[C@H]1Nc2ccn3ncc(c3n2)C(=O)NCC2(C)Cc3cc(F)cc1c3O2 (stereo partly drawn) [Example 5, (3R)-6-fluoro-3,11-dimethyl-10-oxa-2,13,17,18,21-pentaazapentacyclo[13.5.2.1^8,11.0^4,9.0^18,22]tricosa-1 (21),4,6,8,15(22),16,19-heptaen-14-one]	0.92	2.63	0.76	–	4.31	bioavailability [1]: 65%; AUC(0-inf) ([1]; 5 mg/kg, oral intake): 6040 ng·h/mL; Cmax ([1]; 5 mg/kg, oral intake): 2600 ng/mL; half-life ([1]; 5 mg/kg, oral intake): 2.03 h; AUC(0-inf) [1, 2]: 1850 ng·h/mL; clearance [1, 2]: 9 mL/min/kg; half-life [1, 2]: 1.79 h; IC50 (TRKC(G623R)): 14.5 nM
